# Measurements as given in ChEMBL document CHEMBL1201862, “PubChem BioAssay data set” (2004).
#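 A five-concentration, 48-hour dose response in 96-well plates underlies each endpoint, interpolated linearly between surrounding concentrations. At the GI50, growth is halved.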 Active and inactive are the calls of the source. No stated cut-off is given here; in the data, active = GI50 up to about 1.1 µM and inactive = higher.
# Tests used:
# Assay in all cases: growth of human tumour cells (NCI), 48 h
# NCI/ADR-RES = test system: NCI/ADR-RES
# A498 = test system: A498
# SK-OV-3 = test system: SK-OV-3
# SK-MEL-2 = test system: SK-MEL-2
# NCI-H226 = test system: NCI-H226
# Hs-578T = test system: Hs-578T
# HOP-92 = test system: HOP-92
# A549 = test system: A549
# T47D = test system: T47D
# BT-549 = test system: BT-549
# HL-60 = test system: HL-60
# OVCAR-4 = test system: OVCAR-4
# UACC-62 = test system: UACC-62
# SK-MEL-5 = test system: SK-MEL-5
# SNB-75 = test system: SNB-75
# UACC-257 = test system: UACC-257
# M14 = test system: M14
# HT-29 = test system: HT-29
# IGROV-1 = test system: IGROV-1
# NCI-H23 = test system: NCI-H23
# NCI-H460 = test system: NCI-H460
# CAKI-1 = test system: CAKI-1
# ACHN = test system: ACHN
# KM12 = test system: KM12
# MDA-MB-231 = test system: MDA-MB-231
# OVCAR-3 = test system: OVCAR-3
# HCT-116 = test system: HCT-116
# LOX IMVI = test system: LOX IMVI
# RPMI-8226 = test system: RPMI-8226
# K562 = test system: K562
# UO-31 = test system: UO-31
# SF-268 = test system: SF-268
# TK-10 = test system: TK-10
# MDA-N = test system: MDA-N
# PC-3 = test system: PC-3
# HCC 2998 = test system: HCC 2998
# MCF7 = test system: MCF7
# 786-0 = test system: 786-0
# SW-620 = test system: SW-620
# NCI-H522 = test system: NCI-H522
# SN12C = test system: SN12C
# RXF 393 = test system: RXF 393
# HCT-15 = test system: HCT-15
# MDA-MB-435 = test system: MDA-MB-435
# CCRF-CEM = test system: CCRF-CEM
# SF-539 = test system: SF-539
# EKVX = test system: EKVX
# U-251 = test system: U-251
# HOP-62 = test system: HOP-62
# MOLT-4 = test system: MOLT-4
# DU-145 = test system: DU-145
# SF-295 = test system: SF-295
# SNB-19 = test system: SNB-19
# Malme-3M = test system: Malme-3M
# OVCAR-8 = test system: OVCAR-8
# SR = test system: SR
# SK-MEL-28 = test system: SK-MEL-28
# OVCAR-5 = test system: OVCAR-5
# COLO 205 = test system: COLO 205
smiles,measurement,setting,value
Cc1cc2nc(O)c(C(C)C(=O)c3ccc(Cl)cc3)nc2cc1C (centres undefined),GI50,NCI/ADR-RES,28.6 µM (inactive)
same,GI50,A498,23.1 µM (inactive)
same,GI50,SK-OV-3,> 100 µM (inactive)
same,GI50,SK-MEL-2,> 100 µM (inactive)
same,GI50,NCI-H226,35 µM (inactive)
same,GI50,Hs-578T,54.6 µM (inactive)
same,GI50,HOP-92,59.3 µM (inactive)
same,GI50,A549,39.8 µM (inactive)
same,GI50,T47D,32.3 µM (inactive)
same,GI50,BT-549,54.5 µM (inactive)
same,GI50,HL-60,21.2 µM (inactive)
same,GI50,OVCAR-4,31.6 µM (inactive)
same,GI50,UACC-62,46.9 µM (inactive)
same,GI50,SK-MEL-5,38.1 µM (inactive)
same,GI50,SNB-75,35.4 µM (inactive)
same,GI50,UACC-257,16.6 µM (inactive)
same,GI50,M14,45.6 µM (inactive)
same,GI50,HT-29,22.1 µM (inactive)
same,GI50,IGROV-1,61.9 µM (inactive)
same,GI50,NCI-H23,46.3 µM (inactive)
same,GI50,NCI-H460,29.9 µM (inactive)
same,GI50,CAKI-1,81.7 µM (inactive)
same,GI50,ACHN,54.1 µM (inactive)
same,GI50,KM12,29.8 µM (inactive)
same,GI50,MDA-MB-231,36.7 µM (inactive)
same,GI50,OVCAR-3,49.1 µM (inactive)
same,GI50,HCT-116,33.6 µM (inactive)
same,GI50,LOX IMVI,35.6 µM (inactive)
same,GI50,RPMI-8226,43.2 µM (inactive)
same,GI50,K562,40.6 µM (inactive)
same,GI50,UO-31,46.9 µM (inactive)
same,GI50,SF-268,47.5 µM (inactive)
same,GI50,TK-10,27 µM (inactive)
same,GI50,MDA-N,17.8 µM (inactive)
same,GI50,PC-3,31 µM (inactive)
same,GI50,HCC 2998,13.5 µM (inactive)
same,GI50,MCF7,27.5 µM (inactive)
same,GI50,786-0,27.6 µM (inactive)
same,GI50,SW-620,28.8 µM (inactive)
same,GI50,NCI-H522,31.6 µM (inactive)
same,GI50,SN12C,50.7 µM (inactive)
same,GI50,RXF 393,41.3 µM (inactive)
same,GI50,HCT-15,44.7 µM
same,GI50,MDA-MB-435,20.1 µM (inactive)
same,GI50,CCRF-CEM,26.7 µM (inactive)
same,GI50,SF-539,23.4 µM (inactive)
same,GI50,EKVX,14.2 µM (inactive)
same,GI50,U-251,36.2 µM (inactive)
same,GI50,HOP-62,49.8 µM (inactive)
same,GI50,MOLT-4,27.7 µM (inactive)
same,GI50,DU-145,53.1 µM (inactive)
same,GI50,SF-295,31.7 µM (inactive)
same,GI50,SNB-19,56.4 µM (inactive)
same,GI50,Malme-3M,71.6 µM (inactive)
same,GI50,OVCAR-8,32.5 µM (inactive)
same,GI50,SR,22.2 µM (inactive)
same,GI50,SK-MEL-28,50.8 µM (inactive)
same,GI50,OVCAR-5,56.1 µM (inactive)
same,GI50,COLO 205,22 µM (inactive)
